Experimental data as given in paper PMC8510274, “Plasma-Induced Oxidation Products of (–)-Epigallocatechin Gallate with Digestive Enzymes Inhibitory Effects” (Molecules, 2021).
Read-outs that look alike come from different tables or passages of the source.

What was measured:
[1] = target: T1, α-glucosidase (EC 3.2.1.20) from Saccharomyces cerevisiae (Saccharomyces cerevisiae, UniProt P53341); assay: biochemical
T1 construct: purchased Sigma-Aldrich
Procedure: (§1) The specific optical rotation was obtained using a JASCO P-2000 polarimeter (JASCO, Tokyo, Japan), and fast atom bombardment mass spectrometry (FABMS) was recorded on a JMS-700 spectrometer (JEOL, Tokyo, Japan) in negative mode.
The α-glucosidase inhibitory activities of the compounds were evaluated using a minor modification of a previously reported method. The reaction mixture consisted of an enzyme solution (0.5 unit of α-glucosidase, 90 μL), a substrate (1 mM p-NPG, 100 μL) in a 0.1 M phosphate buffer (pH 7.0), and the isolated compounds, and positive control in 5% DMSO (10 μL). After incubation at 37 °C for 30 min, 0.1 M NaOH was added to quench the reaction.
(§2) The α-amylase inhibition assay was performed using a previously reported method with slight modifications. Porcine pancreatic α-amylase (1 unit, 90 µL) was incubated with the sample, and the positive control, at various concentrations. The reaction was started by adding 100 µL of a 1% potato starch solution, in 20 mM phosphate buffer (pH 6.9), to the reaction mixture. […] The mixture was then boiled at 80 °C for 10 min in a water bath and then cooled on ice. The α-amylase inhibitory activity was measured at 540 nm using an ELISA reader. Enzyme inhibition (%) = [1−(A1/A0)] × 100(1) where A0 and A1 are the absorbance of the control and sample, respectively. The α-glucosidase and α-amylase inhibition (%) was calculated, and the half-maximal inhibitory concentration (IC50) was determined by linear regression analysis of the inhibitory activities under the assay conditions.

[2] = target: T2, Porcine pancreatic α-amylase (Sus scrofa, UniProt P00690); assay: α-amylase inhibition assay (potato starch, DNS reagent); format: biochemical
T2 construct: purchased Sigma-Aldrich; host or cells: porcine pancreas
T2 sequence (P00690 16-511): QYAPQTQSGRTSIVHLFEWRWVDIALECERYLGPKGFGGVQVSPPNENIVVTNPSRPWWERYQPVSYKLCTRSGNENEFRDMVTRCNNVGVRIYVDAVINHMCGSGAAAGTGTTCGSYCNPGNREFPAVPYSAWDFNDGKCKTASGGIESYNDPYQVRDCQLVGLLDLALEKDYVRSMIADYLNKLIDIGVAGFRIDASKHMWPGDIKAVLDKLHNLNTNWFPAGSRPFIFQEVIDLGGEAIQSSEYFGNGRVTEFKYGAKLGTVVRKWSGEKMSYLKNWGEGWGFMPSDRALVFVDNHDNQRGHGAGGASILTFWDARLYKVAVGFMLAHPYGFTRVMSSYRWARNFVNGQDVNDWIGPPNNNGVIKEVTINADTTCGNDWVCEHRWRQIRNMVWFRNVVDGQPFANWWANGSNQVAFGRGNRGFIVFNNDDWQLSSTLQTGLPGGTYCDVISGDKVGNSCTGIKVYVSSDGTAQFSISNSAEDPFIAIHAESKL
Procedure: as §1, §2

[3] = IC50 Value α-Glucosidase, isolated compounds, triplicate, acarbose positive control
[4] = isolated compounds, triplicate, acarbose positive control, read-out: IC50 Value α-Amylase (converted)

T1 sequence (P53341 whole entry): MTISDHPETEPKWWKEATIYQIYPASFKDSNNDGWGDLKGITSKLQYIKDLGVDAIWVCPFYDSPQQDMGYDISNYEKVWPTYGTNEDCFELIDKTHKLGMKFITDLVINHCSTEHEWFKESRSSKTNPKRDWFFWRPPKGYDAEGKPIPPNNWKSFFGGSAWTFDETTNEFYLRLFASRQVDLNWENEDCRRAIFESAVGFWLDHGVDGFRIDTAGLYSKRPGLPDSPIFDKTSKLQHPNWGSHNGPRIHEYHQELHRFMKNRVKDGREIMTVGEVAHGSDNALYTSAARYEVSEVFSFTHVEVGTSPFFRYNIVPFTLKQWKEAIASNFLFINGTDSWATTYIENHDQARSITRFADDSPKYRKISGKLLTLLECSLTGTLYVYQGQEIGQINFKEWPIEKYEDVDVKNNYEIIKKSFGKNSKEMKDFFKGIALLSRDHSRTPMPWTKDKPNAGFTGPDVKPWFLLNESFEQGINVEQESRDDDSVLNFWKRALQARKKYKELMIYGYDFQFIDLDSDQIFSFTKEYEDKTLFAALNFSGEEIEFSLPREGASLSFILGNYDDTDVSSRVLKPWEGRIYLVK

| SMILES | IC50 [1, 3] [µM] | IC50 [2] [µM] | IC50 ([1]; read-out: IC50 Value α-Glucosidase) [µM] | IC50 [2, 4] [µM] | IC50 ([1]; IC50 Value α-Glucosidase, plasma irradiation time 0 min (control, parent EGCG)) [µM] | IC50 ([2]; plasma irradiation time 0 min (control, parent EGCG), read-out: IC50 Value α-Amylase (converted)) [µM] |
| --- | --- | --- | --- | --- | --- | --- |
| O=C(O[C@@H]1Cc2c(O)cc(O)cc2O[C@@H]1C1=CC(=O)[C@]2(O)C(=O)c3c(cc(O)c(O)c3O)[C@H]12)c1cc(O)c(O)c(O)c1 [Compound 2, theacitrinin A] | 20.7 ± 0.5 | 25.3 ± 0.6 |  |  |  |  |
| O=C(O[C@@H]1Cc2c(O)cc(O)cc2O[C@@H]1C1=CC(=O)C2(O)C3C([C@H]4Oc5cc(O)cc(O)c5C[C@H]4OC(=O)c4cc(O)c(O)c(O)c4)=CC(=O)C4(O)C1C2(O)OC34O)c1cc(O)c(O)c(O)c1 (stereo partly shown) [Compound 1, EGCG quinone dimer A] |  |  | 15.9 ± 0.3 | 18.7 ± 0.3 |  |  |
| O=C(O)c1cc(O)c(O)c(O)c1 [Compound 3, gallic acid] | > 300 | > 300 |  |  |  |  |
| O=C(O[C@@H]1Cc2c(O)cc(O)cc2O[C@@H]1c1cc(O)c(O)c(O)c1)c1cc(O)c(O)c(O)c1 [EGCG, (−)-Epigallocatechin gallate, reference compound] | 97.2 ± 1.2 |  |  | 75.5 ± 1.3 | 97.1 | 75.3 |
